Measured values: article PMC9514659, “Giardia duodenalis: Flavohemoglobin is involved in drug biotransformation and resistance to albendazole” (PLoS Pathogens, 2022)

Target: T1, flavohemoglobin (gFlHb) (Giardia duodenalis, UniProt E2RTZ4)
T1 construct: gene hmpA; recombinant gFlHb fused to an N-terminal His6-tag
Assay: UV-visible spectral titration of ferric heme at […] nm (also stimulates NADH oxidase activity)
Format: binding

T1 sequence (E2RTZ4 whole entry, the tested form may be a part): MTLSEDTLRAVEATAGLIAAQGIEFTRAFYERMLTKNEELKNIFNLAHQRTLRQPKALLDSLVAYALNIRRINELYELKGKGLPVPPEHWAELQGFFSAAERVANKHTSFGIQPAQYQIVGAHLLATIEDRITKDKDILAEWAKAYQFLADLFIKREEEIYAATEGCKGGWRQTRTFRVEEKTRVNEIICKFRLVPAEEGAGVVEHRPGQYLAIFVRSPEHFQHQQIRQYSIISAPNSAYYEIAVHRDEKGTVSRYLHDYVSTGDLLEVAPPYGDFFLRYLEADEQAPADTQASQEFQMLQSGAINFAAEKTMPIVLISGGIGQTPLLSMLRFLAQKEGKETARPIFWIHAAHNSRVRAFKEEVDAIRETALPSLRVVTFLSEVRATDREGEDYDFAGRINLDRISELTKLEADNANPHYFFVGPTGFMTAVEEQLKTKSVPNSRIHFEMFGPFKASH

Compound	Kd
CCCSc1ccc2nc(NC(=O)OC)[nH]c2c1 [ABZ, albendazole]	23 ± 9 nM
CCC[S+]([O-])c1ccc2[nH]c(NC(=O)OC)nc2c1 (centres unmarked) [ABZSO, albendazole sulfoxide]	19 ± 8 nM
